Measured values published in patent US8691796B2, “Pharmaceutical composition and method for inhibiting inflammation” (China Medical University, priority 2010, dated 2014).

Assays:
Assay type in all cases: cell-based, human
TNF-α = TNF-α concentration in supernatant of treated FLS (sandwich ELISA); conditions: FLS from patients with rheumatoid arthritis, treated 24 hours, mixture = 100 μg hyaluronic acid + 5 micro-mole lovastatin in 1 ml, control group 347.00
Method: (§1) Fibroblast-like synoviocytes (FLS) from seven patients with rheumatoid arthritis (RA) were collected and incubated. First, the joint synovia from the patients were cut into small pieces and suspended in a DMEM medium (Dulbecco modified eagle's medium, comprising 1.5 g/L sodium bicarbonate (S6297, Sigma-Aldrich Co. St Louis, Mo., USA), 1% penicillin-streptomycin-neomycin (P4083, Sigma-Aldrich Co.), and 10% fetal bovine serum (04-001-1A, Biological Industries, Grand Island, N.Y., USA)), and were incubated in the environment under 37° C., 5% CO2 for three days.
(§2) The non-adherent cells were washed out with a phosphate buffer solution (PBS), the medium was refreshed, and the retained adherent cells were cultivated for two weeks. […]
(§3) The concentrations of two RA-related factors, TNF-α (the standard sample was purchased from eBioscience, Ltd., 88-7340) and IL-8 (the standard sample was purchased from R&D systems, Inc., USA, DY208), in the supernatants collected from Experiment B were measured using a sandwich binding protein assay kit or sandwich ELISA kits (purchased from eBioscience, Ltd. and R&D systems, Inc.) according to the manufacturer's manual and standard curves to observe the expression level of the factors, thereby determining the inflammation condition of the cells. Each sample was analyzed twice, and an ELISA reader (Sunrise Remote, TECAN) was used to conduct the measurement. […]

IL-8 = IL-8 concentration in supernatant of treated FLS (sandwich ELISA); conditions: FLS from patients with rheumatoid arthritis, treated 24 hours, mixture = 100 μg hyaluronic acid + 5 micro-mole lovastatin in 1 ml, control group 736.00
Method: The non-adherent cells were washed out with a phosphate buffer solution (PBS), the medium was refreshed, and the retained adherent cells were cultivated for two weeks. The above procedure was repeated three to six times, and the retained cells were FLS, which were used in the following experiments.
The FLS prepared from Experiment A were incubated in a medium containing no serum for 24 hours until the cells grew to a subconfluence state, and the cells were incubated in a DMEM medium containing 10% fetal bovine serum. […]

[1] = tested on: Fibroblast-like synoviocytes (FLS); assay: Inflammation level of FLS judged from secreted TNF-α and IL-8; conditions: FLS from patients with RA, treated 24 hours; TNF-α and IL-8 versus control group / HA only
Method: as §1, §2, §3

For CC[C@H](C)C(=O)O[C@H]1C[C@@H](C)C=C2C=C[C@H](C)[C@H](CC[C@@H]3C[C@@H](O)CC(=O)O3)[C@H]21 [HMG-CoA reductase inhibitor, Lovastatin], the “TNF-α concentration, Average concentration” value (TNF-α) was 355.07 pg/mL and the “IL-8 concentration, Average concentration” value (IL-8) was 703.94 pg/mL.
With hyaluronic acid [HA] the “TNF-α concentration, Average concentration” value (TNF-α) was 296.46 pg/mL, the “IL-8 concentration, Average concentration” value (IL-8) was 353.40 pg/mL and the “inflammation level (effect of inhibiting the inflammation)” value [1] was “the inflammation level was lowered”.
